Measurements as given in patent US4290954A, “Tetrahydroxanthone derivatives” (Kowa Company Limited, priority 1978, dated 1981).

Key:
peritoneal cells = test: Inhibitory effects on histamine release (sensitized rat peritoneal cells, OA challenge); format: cell-based, male Sprague-Dawley (SD) rat; conditions: 10 min at 37° C., OA added simultaneously; for minimal effective concentration: 10 min, read-out: Inhibition of Histamine release (lowest effective concentration to inhibit the release of histamine)
Method: An anti-ovalbumin (OA) mouse serum (IgE like antibody, PCA titer; 1:400-1:800) was diluted 20 times with physiological saline. A male Sprague-Dawley (SD) rat weighing 300-400 g was passively sensitized by intraperitoneal administration of 5 ml of the diluted serum. 48 Hours later, the rat was decapitated and exsanguinated. 10 ml of Tyrode's solution containing 5 units/ml of heparin was then injected into the peritoneal cavity of the rat. After mixing the solution by gentle massage for 60 seconds, the fluid in the peritoneal cavity was collected and then centrifuged for 5 minutes at 120×g to harvest peritoneal cells. The peritoneal cells were suspended in Tyrode's solution so as to adjust the concentration of 10^6 cells/ml. After preincubating 1.6 ml of the cell suspension for 4 minutes at 37° C., 0.2 ml of each test compound solution and 0.2 ml of OA solution (100 μg/ml) were added simultaneously and thereafter incubated for 10 minutes at 37° C. The reaction was terminated by ice-cooling the mixture, and the thus incubated solution was centrifuged for 5 minutes at 670×g to divide the same into a cell pellet and a supernatant liquid phase. The histamine content in each of the phases was determined by the fluorometric method of Grant et al*. Each tested pharmaceutical compound was used by dissolving it in Tyrode's solution prior to its use.
*Grant, J. A., Settle, L., Whorton, E. B. and Dupree, E., Complement-mediated releast of histamine from human basophils: II. Biochemical characterization of the reaction, J. Immunol., 117, 450 (1976)
The results of tests (1) and (2) are shown in Table 1 in which each figure in the "Inhibition of Histamine Release" column denotes the lowest effective concentration to inhibit the release of histamine.

[1] = test system: passive cutaneous anaphylaxis (PCA); test: Inhibitory effects on passive cutaneous anaphylaxis (PCA); format: in vivo, male SD rat; conditions: 100 mg/kg orally one hour prior to the antigen challenge, rat; for inhibition in vivo at 100 mg/kg: po, 1 h, read-out: P C A (p.o), degree of inhibition
Method: A male SD rat weighing about 300 g was used, whose hair on the back had been shaved with an electric clipper. The back skin was passively sensitized by intradermal injection of 0.1 ml of anti-OA mouse serum (IgE like antibody) which had been diluted to three concentration levels. 4 Hours later, the rat was challenged by intravenous injection of an antigen solution of 2 ml/kg containing OA (1 mg/ml) and Evans blue (0.5 mg/ml). 30 Minutes after the antigen challenge, the rat was decapitated and exsanguinated. Then, the skin was reflected, and the area of blue spots was measured in milimeters by multiplying the longer diameter by the shorter diameter. […] The degree of inhibition of the test compound is expressed by the following notations.
±: 0-25% inhibition with no significant difference from the control
±: 25-50% inhibition with a significant difference from the control
++: 50-75% inhibition with a significant difference from the control
+++: 75-100% inhibition with a significant difference from the control
Each test pharmaceutical compound was suspended in a 0.2% carboxymethylcellulose solution and administered orally at a rate of 100 mg/kg one hour prior to the antigen challenge. Disodium cromoglycate which was known as an anti-allergic drug was employed as a control or reference substance.

[2] = Acute toxic test (LD50, up-down method); conditions: in vivo; oral, male SD rat, 72 hours after administration
Method: Each of the compounds shown in Table 2 was suspended in a 0.5% carboxymethylcellulose solution and administered orally to a male SD rat (5 weeks old). Upon the lapse of 72 hours after the administration, the LD50 value was determined by the up-down method.

SMILES	minimal effective concentration (peritoneal cells)	inhibition in vivo at 100 mg/kg [1]	further results
CC(C)(C)C1CCc2oc3ccc(C(=O)Nc4nnn[nH]4)cc3c(=O)c2C1 (stereo not drawn) [2-CONHTz 7-tert.Bu, 7-(t-butyl)-5,6,7,8-tetrahydro-N-(5'-tetrazolyl)-9-oxo-xanthene-2-carboxylic acid amide]	1 µg/mL	0 to 25%	
O=C(Nc1ccccc1C(=O)O)c1ccc2oc3c(c(=O)c2c1)CCCC3 [drawing 20]	1 µg/mL		P C A (p.o), degree of inhibition [1]: + +
CC(C)(C)C1CCc2oc3ccc(C(=O)O)cc3c(=O)c2C1 (stereo not drawn) [2-COOH 7-tert.Bu, 7-(t-butyl)-5,6,7,8-tetrahydro-9-oxo-xanthene-2-carboxylic acid]	0.3 µg/mL	75 to 100%	
O=C(O)c1cc(=O)c2c(OCC(O)COc3cccc4oc(C(=O)O)cc(=O)c34)cccc2o1 [Disodium cromoglycate, reference compound]	3 µg/mL	0 to 25%	
CC1CCc2oc3ccc(C(=O)O)cc3c(=O)c2C1 (stereo not drawn) [2-COOH 7-CH3, 7-methyl-5,6,7,8-tetrahydro-9-oxo-xanthene-2-carboxylic acid]	0.3 µg/mL		
CC1CCc2oc3ccc(-c4nn[nH]n4)cc3c(=O)c2C1 (stereo not drawn) [2-Tz 7-CH3, 2-methyl-1,2,3,4-tetrahydro-7-(5'tetrazolyl)-9-xanthone]			Inhibition of Histamine release (lowest effective concentration to inhibit the release of histamine) (peritoneal cells): 0.01 µg/mL; P C A (p.o), degree of inhibition [1]: ± (0-25% inhibition with no significant difference from the control)
O=C(O)c1ccc2c(=O)c3c(oc2c1)CCCC3 [Example 3-COOH, 5,6,7,8-tetrahydro-9-oxo-xanthene-3-carboxylic acid]	10 µg/mL		
CC1CCc2oc3ccc(C(=O)Nc4ccccc4C(=O)O)cc3c(=O)c2C1 (stereo not drawn)	0.3 µg/mL	0 to 25%	
O=C(O)C1CCc2oc3ccc(-c4nnn[nH]4)cc3c(=O)c2C1 (stereo not drawn) [2-Tz 7-COOH]	0.01 µg/mL		
Cc1ccc2c(=O)c3c(oc2c1)CCC(c1nnn[nH]1)C3 (stereo not drawn) [3-CH3 7-Tz, 6-Methyl-1,2,3,4-tetrahydro-2-(5'-tetrazolyl)-9-oxo-xanthene]	1 µg/mL		
Cc1ccc2c(=O)c3c(oc2c1)CCC(C(=O)Nc1ccccc1C(=O)O)C3 (stereo not drawn) [drawing 19]	3 µg/mL		
Cc1ccc2c(=O)c3c(oc2c1)CCC(C(=O)Nc1ccccc1C(=O)O)C3 (stereo not drawn) [drawing 26]			LD50 at 72 h [2]: > 4000 mg/kg
O=C(Nc1ccccc1C(=O)O)c1ccc2oc3c(c(=O)c2c1)CCCC3 [drawing 25]			LD50 at 72 h [2]: > 4000 mg/kg
Cc1ccc2c(=O)c3c(oc2c1)CCC(C(=O)Nc1nnn[nH]1)C3 (stereo not drawn) [3-CH3 7-CONHTz]	3 µg/mL	0 to 25%	
O=C(OC1CCc2oc3ccc(-c4nnn[nH]4)cc3c(=O)c2C1)c1ccccc1 (stereo not drawn)	10 µg/mL		
CC(C)(C)C1CCc2oc3ccc(-c4nnn[nH]4)cc3c(=O)c2C1 (stereo not drawn) [2-Tz 7-tert.Bu, 2-(t-butyl)-1,2,3,4-tetrahydro-7-(5'-tetrazolyl)-9-xanthone]	0.1 µg/mL		
O=C(O)c1ccc2oc3c(c(=O)c2c1)CCCC3 [Example 2-COOH, 5,6,7,8-Tetrahydro-9-oxo-xanthene-2-carboxylic acid]	10 µg/mL		LD50 at 72 h [2]: > 4000 mg/kg
Cc1cc(C(=O)O)cc2c(=O)c3c(oc12)CCCC3 [2-COOH 4-CH3, 4-methyl-5,6,7,8-tetrahydro-9-oxo-xanthene-2-carboxylic acid]		50 to 75%	
CC1CCc2oc3cc(-c4nnn[nH]4)ccc3c(=O)c2C1 (stereo not drawn) [3-Tz 7-CH3, 2-methyl-1,2,3,4-tetrahydro-6-(5'-tetrazolyl)-9-xanthone]		50 to 75%	
O=C(Nc1nnn[nH]1)c1ccc2oc3c(c(=O)c2c1)CCCC3 [Example 2-CONHTz, 5,6,7,8-tetrahydro-N-(5'-tetrazolyl)-9-oxo-xanthene-2-carboxylic acid amide]	0.1 µg/mL		
Cc1cc(-c2nnn[nH]2)cc2c(=O)c3c(oc12)CCCC3 [2-Tz 4-CH3, 4-methyl-5,6,7,8-tetrahydro-2-(5'-tetrazolyl)-9-xanthone]	0.1 µg/mL		
O=c1c2c(oc3cc(-c4nnn[nH]4)ccc13)CCCC2 [Example 3-Tz, 5,6,7,8-tetrahydro-3-(5'-tetrazolyl)-9-xanthone]	0.3 µg/mL	50 to 75%	
O=c1c2c(oc3ccc(-c4nnn[nH]4)cc13)CCCC2 [Example 2-Tz, 1,2,3,4-Tetrahydro-7-(5'-tetrazolyl)-9-xanthone]	0.01 µg/mL		LD50 at 72 h [2]: > 4000 mg/kg
